Results on twelve compounds are retold here after patent US7879848B2, “Dipeptidyl Peptidase-IV inhibiting compounds, method of preparing the same, and pharmaceutical compositions containing the same as an active agent” (LG Life Sciences, Ltd., priority 2005, dated 2011).

The target of this experiment is T1, Dipeptidyl Peptidase-IV (DPP-IV) (Homo sapiens, UniProt P27487).
T1 construct: made in house
T1 sequence (P27487 whole entry): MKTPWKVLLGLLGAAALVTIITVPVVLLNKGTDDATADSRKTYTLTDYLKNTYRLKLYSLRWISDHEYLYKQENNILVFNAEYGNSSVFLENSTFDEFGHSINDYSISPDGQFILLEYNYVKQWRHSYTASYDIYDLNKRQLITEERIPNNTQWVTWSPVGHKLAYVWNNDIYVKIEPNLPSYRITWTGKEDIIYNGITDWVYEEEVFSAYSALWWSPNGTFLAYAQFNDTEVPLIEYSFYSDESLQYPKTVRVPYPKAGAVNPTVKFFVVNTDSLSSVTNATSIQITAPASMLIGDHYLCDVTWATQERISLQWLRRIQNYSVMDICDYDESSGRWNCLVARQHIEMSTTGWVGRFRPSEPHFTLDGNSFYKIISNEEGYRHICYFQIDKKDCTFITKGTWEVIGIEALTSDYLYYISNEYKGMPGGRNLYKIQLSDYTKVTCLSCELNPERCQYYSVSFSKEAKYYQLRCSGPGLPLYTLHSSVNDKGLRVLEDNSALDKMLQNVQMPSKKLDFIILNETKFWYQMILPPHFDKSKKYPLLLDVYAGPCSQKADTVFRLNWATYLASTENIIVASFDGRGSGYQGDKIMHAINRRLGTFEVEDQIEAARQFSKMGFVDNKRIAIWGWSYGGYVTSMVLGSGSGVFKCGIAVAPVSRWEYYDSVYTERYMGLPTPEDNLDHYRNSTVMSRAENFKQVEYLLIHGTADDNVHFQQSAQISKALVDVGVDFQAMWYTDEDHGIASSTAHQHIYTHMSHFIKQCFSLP
In words: Measurement of DPP-IV Activity-Inhibiting Ability (fluorescent substrate Ac-Gly-Pro-AFC). It counts as biochemical. To be noted: 25° C., 50 mmol HEPES (pH 7.4), DP-IV 7.1 nM, enzyme reaction for 1 hour. The source says: Dipeptidyl Peptidase-IV (DPP-IV), known as serine protease, was obtained by a modification of the known method (Tanaka T. et al, Proc. Natl. Acad. Sci. USA, (1994) 91, 3082-3086), which comprises cloning, purification by use of Baculo-Virus and activation steps. DPP-IV was used to test the pharmaceutical efficacy of candidate inhibitors as follows. The cloned DP-IV was expressed in Baculo-Virus, which was purified by nickel column and then subjected to dialysis. The inhibitors synthesized in Examples were tested to determine the binding activity there of using a fluorescent substrate, Ac-Gly-Pro-AFC. Enzyme reactions were conducted for various concentrations of inhibitors, using 100 µM Ac-Gly-Pro-AFC at 25° C. in a buffer solution containing 50 mmol HEPES (pH 7.4), with the concentration of DP-IV being 7.1 nM. […] As the fluorescent spectrometer, Spectra MAX GeminiXS fluorescent spectrometer from Molecular Device Co. was used and the excitation frequency and emission frequency were set to 400 nm and 505 nm, respectively.
`C[C@H]1CN(C[C@@H](N)CC(=O)N2CCn3c(nnc3C(F)(F)F)C2)C(=O)CO1` [Ex. 78, (6S)-4-{(2S)-2-amino-4-oxo-4-[3-(trifluoromethyl)-5,6-dihydro[1,2,4]triazolo[4,3-a]pyrazin-7(8H)-yl]butyl}-6-methylmorpholine-3-one] gave an IC50 of 163 nM.
Next, `N[C@@H](CC(=O)N1CCc2c(nc(-c3ccco3)nc2C(F)(F)F)C1)CN1CC(F)(F)CCC1=O` [Ex. 65, 1-{(2S)-2-amino-4-[2-(2-furyl)-4-(trifluoromethyl)-5,8-dihydropyrido[3,4-d]pyrimidin-7(6H)-yl]-4-oxobutyl}-5,5-difluoropiperidin-2-one]: 12 nM.
Consider `CC1=CC(=O)N(C[C@@H](N)CC(=O)N2CCc3c(nc(-c4ccoc4)nc3C(F)(F)F)C2)C1` [Ex. 104, 1-{(2S)-2-amino-4-[2-(3-furyl)-4-(trifluoromethyl)-5,8-dihydropyrido[3,4-d]pyrimidin-7(6H)-yl]-4-oxobutyl}-4-methyl-1,5-dihydro-2H-pyrrol-2-one], for which the IC50 amounted to 110 nM.
Next, `N[C@@H](CC(=O)N1CCc2c(nc(-c3ccsc3)nc2C(F)(F)F)C1)CN1CC(F)(F)CCC1=O` [Ex. 61, 1-{(2S)-2-amino-4-oxo-4-[2-(3-thienyl)-4-(trifluoromethyl)-5,8-dihydropyrido[3,4-d]pyrimidin-7(6H)-yl]butyl}-5,5-difluoropiperidin-2-one]: 55 nM.
Next, `CC1CCN(C[C@@H](N)CC(=O)N2CCc3c(nc(C(F)(F)F)nc3C(F)(F)F)C2)C(=O)C1` (stereo partly drawn) [Ex. 110, 1-{(2S)-2-amino-4-[2,4-bis(trifluoromethyl)-5,8-dihydropyrido[3,4-d]pyrimidin-7(6H)-yl]-4-oxobutyl}-4-methyloxopiperidin-2-one]: 56 nM.
With `C[C@H]1CN(C[C@@H](N)CC(=O)N2CCn3c(nnc3C(F)(F)C(F)(F)F)C2)C(=O)CO1` [Ex. 90, (6S)-4-{(2S)-2-amino-4-oxo-4-[3-(pentafluoroethyl)-5,6-dihydro[1,2,4]triazolo[4,3-a]pyrazin-7(8H)-yl]butyl}-6-methylmorpholine-3-one], the IC50 came to 356 nM.
For `CC1=CC(=O)N(C[C@@H](N)CC(=O)N2CCc3c(nc(C(F)(F)F)nc3C(F)(F)F)C2)C1` [Ex. 103, 1-{(2S)-2-amino-4-[2,4-bis(trifluoromethyl)-5,8-dihydropyrido[3,4-d]pyrimidin-7(6H)-yl]-4-oxobutyl}-4-methyl-1,5-dihydro-2H-pyrrol-2-one], the IC50 was 74 nM.
Next, `C[C@H]1CN(C[C@@H](N)CC(=O)N2CCc3c(nc(-c4ccccc4)nc3C(F)(F)F)C2)C(=O)CO1` [Ex. 23]: 130 nM.
Regarding `C[C@@H]1CCC(=O)N(C[C@@H](N)CC(=O)N2CCc3c(nc(C(F)(F)C(F)(F)F)nc3C(F)(F)F)C2)C1` [Ex. 96, (5R)-1-{(2S)-2-amino-4-oxo-4-[2-(pentafluoroethyl)-4-(trifluoromethyl)-5,8-dihydropyrido[3,4-d]pyrimidin-7(6H)-yl]butyl}-5-methylpiperidin-2-one], the IC50 is 7 nM.
The same measure for `C[C@@H]1CCC(=O)N(C[C@@H](N)CC(=O)N2CCc3c(nc(-c4cccnc4)nc3C(F)(F)F)C2)C1` [Ex. 70, (5R)-1-{(2S)-2-amino-4-oxo-4-[2-pyridin-3-yl-4-(trifluoromethyl)-5,8-dihydropyrido[3,4-d]pyrimidin-7(6H)-yl]butyl}-5-methylpiperidin-2-one]: 8 nM; for `N[C@@H](CC(=O)N1CCc2c(nc(C3CCCC3)nc2C(F)(F)F)C1)CN1CC(F)(F)CCC1=O` [Ex. 40, 1-{(2S)-2-amino-4-[2-cyclopentyl-4-(trifluoromethyl)-5,8-dihydropyrido[3,4-d]pyrimidin-7(6H)-yl]-4-oxobutyl}-5,5-difluoropiperidin-2-one]: 30 nM; for `C[C@H]1CN(C[C@@H](N)CC(=O)N2CCc3c(cccc3C(F)(F)F)C2)C(=O)CO1` [Ex. 29, (6S)-4-{(2S)-2-amino-4-oxo-4-[5-(trifluoromethyl)-3,4-dihydroisoquinolin-2(1H)-yl]butyl}-6-methylmorpholine-3-one]: 175 nM.

The IC50 is the concentration that inhibits the measured activity by half. A higher IC50 goes with weaker potency in that assay.
